As a reminder, the pEC50 is the negative decadic logarithm of the EC50, by convention in mol/L. A high value points to a small EC50.

Some targets named below: GluN1/2C (Rattus norvegicus, UniProt P35439+Q00961); GluN1/2D (Rattus norvegicus, UniProt P35439+Q62645); GluN1/2B (Rattus norvegicus, UniProt P35439+Q00960); GluN1/2A (Rattus norvegicus, UniProt P35439).
Common to all, as to assay: TEVC electrophysiology, Xenopus oocytes
Common to all, as to assay type: cell-based

pEC50: −log10 of the molar value.

With `CCCCSC[C@H](N)C(=O)O` [10a, S-Butyl L-cysteine], the pEC50 on GluN1/2C and at GluN1/2D was less than 3.52 each time.

For `CCCCC(=O)NC[C@H](N)C(=O)O` [13b], the pEC50 on GluN1/2C and at GluN1/2D was less than 3.52 in each case.

As to `N[C@@H](CSCc1ccccc1)C(=O)O` [11a, S-benzyl substituted L-cysteine], the pEC50 at GluN1/2C is 4.06; on GluN1/2D, less than 3.52.

`CCCCSC[C@@H](N)C(=O)O` [10b, S-Butyl D-cysteine]: the negative-log EC50 (pEC50) at GluN1/2C, on GluN1/2D and at GluN1/2B was less than 3.52 in each case.

On to `N[C@@H](COCc1ccccc1)C(=O)O` [8b], for which the pEC50 on GluN1/2C, on GluN1/2D and at GluN1/2B was less than 3.52 in each case.

Turning to `N[C@H](CSCc1ccccc1)C(=O)O` [11b, S-benzylated D-cysteine], the pEC50 at GluN1/2C and on GluN1/2D was less than 3.52 each time.

Turning to `CCCCC(=O)NC[C@@H](N)C(=O)O` [13a, pentanamido analogue 13a], the pEC50 is 3.69 at GluN1/2C, less than 3.52 on GluN1/2D, less than 3.52 at GluN1/2A and less than 3.52 at GluN1/2B.

(Values after publication PMC5559341 (ACS chemical neuroscience, 2017).)
